Laboratory results reported in patent US10513519B2, “Solid forms of (1S,4S)-4-(2-(((3S,4R)-3-fluorotetrahydro-2H-pyran-4-yl)amino)-8-((2,4,6-trichlorophenyl)amino)-9H-purin-9-yl)-1-methylcyclohexane-1-carboxamide and methods of their use” (Signal Pharmaceuticals, LLC, priority 2016, dated 2019).

Tested on: cancer cell lines
Experiment: Multiplexed cytotoxicity assay: cell proliferation (relative cell count IC50, GI50)
Assay type: cell-based
Details: Homo sapiens
Description: (§1) Cells are grown in RPMI1640, 10% FBS, 2 mM L-alanyl-L-Glutamine, 1 mM Na pyruvate or a special medium in a humidified atmosphere of 5% CO2 at 37° C. Cells are seeded into 384-well plates and incubated in a humidified atmosphere of 5% CO2 at 37° C. Compounds are added 24 h post cell seeding. At the same time, a time zero untreated cell plate is generated. After a 72 hour incubation period, cells are fixed and stained with fluorescently labeled antibodies and nuclear dye to allow visualization of nuclei, apoptotic cells and mitotic cells. Apoptotic cells are detected using an anti-active caspase-3 antibody. Mitotic cells are detected using an anti phospho-histone-3 antibody. Compounds are serially diluted 3.16-fold and assayed over 10 concentrations in a final assay concentration of 0.1% DMSO from the highest test concentration of 10 μM. Automated fluorescence microscopy was carried out using a Molecular Devices ImageXpress Micro XL high-content imager, and images are collected with a 4× objective.
Sixteen-bit TIFF images are acquired and analyzed with MetaXpress 5.1.0.41 software. Cell proliferation is measured by the signal intensity of the incorporated nuclear dye. The cell proliferation assay output is referred to as the relative cell count. To determine the cell proliferation end point, the cell proliferation data output is transformed to percentage of control (POC) using the following formula: POC=relative cell count(compound wells)/relative cell count(vehicle wells)×100
GI50 is the concentration needed to reduce the observed growth by half. This is the concentration that inhibits the growth to the level midway between growth in untreated cells and the number of cells seeded in the well (Time zero value). The IC50 values are calculated using nonlinear regression to fit data to a sigmoidal 4 point, 4 parameter One-Site dose response model, where: y(fit)=A+[(B−A)/(1+((C/x)^D))].
as §1, with “In another experiment, cells were grown” for “Cells are grown”, “Cells were” for “Cells are”, “Compounds were” for “Compounds are”, “plate was” for “plate is”, “cells were” for “cells are”, “images were” for “images are”
Sixteen-bit TIFF images were acquired and analyzed with MetaXpress 5.1.0.41 software. Cell proliferation was measured by the signal intensity of the incorporated nuclear dye. The cell proliferation assay output was referred to as the relative cell count. To determine the cell proliferation end point, the cell proliferation data output was transformed to percentage of control (POC) using the following formula: POC=relative cell count(compound wells)/relative cell count(vehicle wells)×100
GI50 refers to the concentration needed to reduce the observed growth by half. This corresponds to the concentration that inhibits the growth to the level midway between growth in untreated cells and the number of cells seeded in the well (Time zero value). The IC50 values were calculated using nonlinear regression to fit data to a sigmoidal 4 point, 4 parameter One-Site dose response model, where: y(fit)=A+[(B−A)/(1+((C/x)^D))].

[1] = JIYOYE, JIYOYE (Hematopoietic and lymphoid, Lymphoma)
[2] = JeKo-1, JEKO1 (Hematopoietic and lymphoid, Lymphoma)
[3] = Jurkat, JURKAT (Hematopoietic and lymphoid, Leukemia)
[4] = K562, K562 (Hematopoietic and lymphoid, Leukemia)
[5] = KATO III, 72 h, KATOIII, Stomach
[6] = KU812, KU812 (Hematopoietic and lymphoid, Leukemia)
[7] = L-428, L428 (Hematopoietic and lymphoid, Lymphoma)
[8] = MC116, MC116 (Hematopoietic and lymphoid, Lymphoma)
[9] = MC-IXC, 72 h, MCIXC, CNS, Neuroblastoma
[10] = ME-180, 72 h, ME180, Female GU, Ovary, 72 h
[11] = MEG-01, MEG01 (Hematopoietic and lymphoid, Leukemia)
[12] = MES-SA, 72 h, MESSA, Soft Tissue, Sarcoma
[13] = MG-63, 72 h, MG63, Soft Tissue, Osteosarcoma, 72 h
[14] = MHH-PREB-1, MHHPREB1 (Hematopoietic and lymphoid, Leukemia)
[15] = MIA PaCa-2, 72 h, MIAPACA2, Pancreas, 72 h
[16] = MOLT-3, MOLT3 (Hematopoietic and lymphoid, Leukemia)
[17] = MOLT-16, MOLT16 (Hematopoietic and lymphoid, Leukemia)
[18] = MV4-11, MV411 (Hematopoietic and lymphoid, Leukemia)
[19] = Malme-3M, MALME3M (Skin, Melanoma)
[20] = NALM-6, NALM6 (Hematopoietic and lymphoid, Leukemia)
[21] = NCI-H69, 72 h, NCIH69, Lung, SCLC, 72 h
[22] = NCI-H292, 72 h, NCIH292, Lung, NSCLC, 72 h
[23] = NCI-H295R, NCIH295R (Endocrine, Adrenal gland)

For `C[C@]1(C(N)=O)CC[C@@H](n2c(Nc3c(Cl)cc(Cl)cc3Cl)nc3cnc(N[C@@H]4CCOC[C@H]4F)nc32)CC1` [Compound 1, cis-4-[2-{[(3S,4R)-3-fluorooxan-4-yl]amino}-8-(2,4,6-trichloroanilino)-9H-purin-9-yl]-1-methylcyclohexane-1-carboxamide], the GI50 [1] was 0.0814 µM, the IC50 [1] was 0.21 µM and the GI50 [2] was 0.461 µM. It also gave an IC50 [2] of 0.83 µM, a GI50 [3] of 3.34 µM and an IC50 [3] of 3.73 µM. The GI50 [4] was greater than 10 µM, the IC50 [4] was greater than 10 µM and the GI50 [5] was 0.0612 µM. The IC50 [5] was 0.0787 µM, the GI50 [6] was 0.003 µM and the IC50 [6] was 0.0159 µM. For the same compound, the GI50 [7] was 1.63 µM, the IC50 [7] was 3.46 µM and the GI50 (LNCaP, 72 h, Prostate) was 2.43 µM. The IC50 (LNCaP, 72 h, Prostate) was 5.07 µM, the GI50 (LS174T, LS174T (Colon)) was 0.194 µM and the IC50 (LS174T, LS174T (Colon)) was 0.259 µM. It also gave a GI50 (LS-123, LS123 (Colon)) of 0.061 µM, an IC50 (LS-123, LS123 (Colon)) of 0.188 µM and a GI50 (LS-411N, LS411N (Colon)) of 0.0358 µM. For the same compound, the IC50 (LS-411N, LS411N (Colon)) was 0.053 µM, the GI50 (LS-513, LS513 (Colon)) was 0.0353 µM and the IC50 (LS-513, LS513 (Colon)) was 0.0386 µM. It also gave a GI50 (LS-1034, LS1034 (Colon)) of 0.224 µM, an IC50 (LS-1034, LS1034 (Colon)) of 0.676 µM and a GI50 (M059J, M059J (CNS, Glioma)) of 0.612 µM. It also gave an IC50 (M059J, M059J (CNS, Glioma)) of 3.31 µM, a GI50 [8] of 6.02 µM and an IC50 [8] of 6.49 µM. The GI50 [9] was 2.04 µM, the IC50 [9] was 2.33 µM and the GI50 (MCF7, MCF7 (Breast)) was 0.636 µM. The IC50 (MCF7, MCF7 (Breast)) was 3.47 µM, the GI50 (MDA-MB-231, MDAMB231 (Breast)) was 0.0339 µM and the IC50 (MDA-MB-231, MDAMB231 (Breast)) was 0.0624 µM. For the same compound, the GI50 (MDA-MB-415, MDAMB415 (Breast)) was 0.729 µM, the IC50 (MDA-MB-415, MDAMB415 (Breast)) was greater than 10 µM and the GI50 (MDA-MB-436, MDAMB436 (Breast)) was 0.262 µM. The IC50 (MDA-MB-436, MDAMB436 (Breast)) was greater than 10 µM, the GI50 (MDA-MB-453, MDAMB453 (Breast)) was 0.656 µM and the IC50 (MDA-MB-453, MDAMB453 (Breast)) was 2.82 µM. It also gave a GI50 (MDA-MB-468, MDAMB468 (Breast)) of 0.0363 µM, an IC50 (MDA-MB-468, MDAMB468 (Breast)) of 0.0721 µM and a GI50 [10] greater than 10 µM. For the same compound, the IC50 [10] was greater than 10 µM, the GI50 [11] was 0.0818 µM and the IC50 [11] was 0.221 µM. For the same compound, the GI50 [12] was 0.81 µM, the IC50 [12] was 1.1 µM and the GI50 [13] was 0.108 µM. The IC50 [13] was 0.115 µM, the GI50 [14] was 6.69 µM and the IC50 [14] was 6.97 µM. For the same compound, the GI50 [15] was 0.0357 µM, the IC50 [15] was 0.0396 µM and the GI50 [16] was 0.946 µM. It also gave an IC50 [16] of 3.03 µM, a GI50 [17] of 2.88 µM and an IC50 [17] of 3.35 µM. It also gave a GI50 [18] of 0.107 µM, an IC50 [18] of 0.184 µM and a GI50 [19] of 0.0034 µM. The IC50 [19] was 0.012 µM, the GI50 (MeWo, MEWO (Skin, Melanoma)) was 0.102 µM and the IC50 (MeWo, MEWO (Skin, Melanoma)) was 0.159 µM. It also gave a GI50 [20] greater than 10 µM, an IC50 [20] greater than 10 µM and a GI50 [21] of 5 µM. For the same compound, the IC50 [21] was greater than 10 µM, the GI50 [22] was 0.278 µM and the IC50 [22] was 0.686 µM. The GI50 [23] was greater than 10 µM, the IC50 [23] was greater than 10 µM and the GI50 (NCI-H441, 72 h, NCIH441, Lung, NSCLC, 72 h) was 0.271 µM.
